# Measured values from ChEMBL document CHEMBL4004849, “Tetrazolylmethyl quinolines: Design, docking studies, synthesis, anticancer and antifungal analyses” (2017).
# Calls of active or inactive are those of the source. The rule behind the calls is not given here.
# Experiments:
# Format in all cases: functional
# IGROV-1 = test: Growth inhibition of human IGROV1 cells at 10^-5 M incubated for 48 hrs by sulforhodamine B assay relative to control
# SK-OV-3 = test: Growth inhibition of human SKOV3 cells at 10^-5 M incubated for 48 hrs by sulforhodamine B assay relative to control
# SN12C = test: Growth inhibition of human SN12C cells at 10^-5 M incubated for 48 hrs by sulforhodamine B assay relative to control
# A549 = test: Growth inhibition of human A549/ATCC cells at 10^-5 M incubated for 48 hrs by sulforhodamine B assay relative to control
# NCI-H226 = test: Growth inhibition of human NCI-H226 cells at 10^-5 M incubated for 48 hrs by sulforhodamine B assay relative to control
# M14 = test: Growth inhibition of human M14 cells at 10^-5 M incubated for 48 hrs by sulforhodamine B assay relative to control
# NCI-H23 = test: Growth inhibition of human NCI-H23 cells at 10^-5 M incubated for 48 hrs by sulforhodamine B assay relative to control
# NCI-H460 = test: Growth inhibition of human NCI-H460 cells at 10^-5 M incubated for 48 hrs by sulforhodamine B assay relative to control
# SF-539 = test: Growth inhibition of human SF539 cells at 10^-5 M incubated for 48 hrs by sulforhodamine B assay relative to control
# LOX IMVI = test: Growth inhibition of human LOXIMVI cells at 10^-5 M incubated for 48 hrs by sulforhodamine B assay relative to control
# TK-10 = test: Growth inhibition of human TK10 cells at 10^-5 M incubated for 48 hrs by sulforhodamine B assay relative to control
# Candida albicans [1] = test: Antifungal activity against Candida albicans at 100 ug/ml by disc diffusion method; details: read-out: IZ
# EKVX = test: Growth inhibition of human EKVX cells at 10^-5 M incubated for 48 hrs by sulforhodamine B assay relative to control
# RXF 393 = test: Growth inhibition of human RXF393 cells at 10^-5 M incubated for 48 hrs by sulforhodamine B assay relative to control
# OVCAR-8 = test: Growth inhibition of human OVCAR8 cells at 10^-5 M incubated for 48 hrs by sulforhodamine B assay relative to control
# SF-268 = test: Growth inhibition of human SF268 cells at 10^-5 M incubated for 48 hrs by sulforhodamine B assay relative to control
# KM12 = test: Growth inhibition of human KM12 cells at 10^-5 M incubated for 48 hrs by sulforhodamine B assay relative to control
# MOLT-4 = test: Growth inhibition of human MOLT4 cells at 10^-5 M incubated for 48 hrs by sulforhodamine B assay relative to control
# HCT-15 = test: Growth inhibition of human HCT15 cells at 10^-5 M incubated for 48 hrs by sulforhodamine B assay relative to control
# T47D = test: Growth inhibition of human T47D cells at 10^-5 M incubated for 48 hrs by sulforhodamine B assay relative to control
# COLO 205 = test: Growth inhibition of human COLO205 cells at 10^-5 M incubated for 48 hrs by sulforhodamine B assay relative to control
# UACC-257 = test: Growth inhibition of human UACC257 cells at 10^-5 M incubated for 48 hrs by sulforhodamine B assay relative to control
# HL-60(TB) = test: Growth inhibition of human HL-60(TB) cells at 10^-5 M incubated for 48 hrs by sulforhodamine B assay relative to control
# NCI-H522 = test: Growth inhibition of human NCI-H522 cells at 10^-5 M incubated for 48 hrs by sulforhodamine B assay relative to control
# SK-MEL-2 = test: Growth inhibition of human SK-MEL-2 cells at 10^-5 M incubated for 48 hrs by sulforhodamine B assay relative to control
# SNB-19 = test: Growth inhibition of human SNB19 cells at 10^-5 M incubated for 48 hrs by sulforhodamine B assay relative to control
# Aspergillus fumigatus = test: Antifungal activity against Aspergillus fumigatus after 24 hrs by serial dilution method
# CAKI-1 = test: Growth inhibition of human Caki1 cells at 10^-5 M incubated for 48 hrs by sulforhodamine B assay relative to control
# U-251 = test: Growth inhibition of human U251 cells at 10^-5 M incubated for 48 hrs by sulforhodamine B assay relative to control
# HCT-116 = test: Growth inhibition of human HCT116 cells at 10^-5 M incubated for 48 hrs by sulforhodamine B assay relative to control
# ACHN = test: Growth inhibition of human ACHN cells at 10^-5 M incubated for 48 hrs by sulforhodamine B assay relative to control
# HCC 2998 = test: Growth inhibition of human HCC2998 cells at 10^-5 M incubated for 48 hrs by sulforhodamine B assay relative to control
# SNB-75 = test: Growth inhibition of human SNB75 cells at 10^-5 M incubated for 48 hrs by sulforhodamine B assay relative to control
# SR = test: Growth inhibition of human SR cells at 10^-5 M incubated for 48 hrs by sulforhodamine B assay relative to control
# SW-620 = test: Growth inhibition of human SW620 cells at 10^-5 M incubated for 48 hrs by sulforhodamine B assay relative to control
# Candida albicans [2] = test: Antifungal activity against Candida albicans after 24 hrs by serial dilution method
# SF-295 = test: Growth inhibition of human SF295 cells at 10^-5 M incubated for 48 hrs by sulforhodamine B assay relative to control
# UO-31 = test: Growth inhibition of human UO31 cells at 10^-5 M incubated for 48 hrs by sulforhodamine B assay relative to control
# SK-MEL-5 = test: Growth inhibition of human SK-MEL-5 cells at 10^-5 M incubated for 48 hrs by sulforhodamine B assay relative to control
# MDA-MB-231 = test: Growth inhibition of human MDA-MB-231/ATCC cells at 10^-5 M incubated for 48 hrs by sulforhodamine B assay relative to control
# UACC-62 = test: Growth inhibition of human UACC62 cells at 10^-5 M incubated for 48 hrs by sulforhodamine B assay relative to control
# BT-549 = test: Growth inhibition of human BT549 cells at 10^-5 M incubated for 48 hrs by sulforhodamine B assay relative to control
# Malme-3M = test: Growth inhibition of human MALME-3M cells at 10^-5 M incubated for 48 hrs by sulforhodamine B assay relative to control
# MDA-MB-435 = test: Growth inhibition of human MDA-MB-435 cells at 10^-5 M incubated for 48 hrs by sulforhodamine B assay relative to control
structure (smiles),measurement,setting,value
Fc1ccc2nc(Cl)c(Cn3nnc(CSc4ccccc4)n3)cc2c1,growth inhibition (GI),IGROV-1,Active
same,growth inhibition (GI),SK-OV-3,Active
same,growth inhibition (GI),SN12C,Active
same,growth inhibition (GI),A549,Active
same,growth inhibition (GI),NCI-H226,Active
same,growth inhibition (GI),M14,Active
same,growth inhibition (GI),NCI-H23,Active
same,growth inhibition (GI),NCI-H460,Active
same,growth inhibition (GI),SF-539,Active
same,growth inhibition (GI),LOX IMVI,Active
same,growth inhibition (GI),TK-10,Active
same,zone of inhibition at 100 µg/mL,Candida albicans [1],18 mm
same,growth inhibition (GI),EKVX,Active
same,growth inhibition (GI),RXF 393,Active
same,growth inhibition (GI),OVCAR-8,Active
same,growth inhibition (GI),SF-268,Active
same,growth inhibition (GI),KM12,Active
same,growth inhibition (GI),MOLT-4,Active
same,growth inhibition (GI),HCT-15,Active
same,growth inhibition (GI),T47D,Active
same,growth inhibition (GI),COLO 205,Active
same,growth inhibition (GI),UACC-257,Active
same,growth inhibition (GI),HL-60(TB),Active
same,growth inhibition (GI),NCI-H522,Active
same,growth inhibition (GI),SK-MEL-2,Active
same,growth inhibition (GI),SNB-19,Active
same,MIC,Aspergillus fumigatus,2.5 µg/mL
same,growth inhibition (GI),CAKI-1,Active
same,growth inhibition (GI),U-251,Active
same,growth inhibition (GI),HCT-116,Active
same,growth inhibition (GI),ACHN,Active
same,growth inhibition (GI),HCC 2998,Active
same,growth inhibition (GI),SNB-75,Active
same,growth inhibition (GI),SR,Active
same,growth inhibition (GI),SW-620,Active
same,MIC,Candida albicans [2],50 µg/mL
same,growth inhibition (GI),SF-295,Active
same,growth inhibition (GI),UO-31,Active
same,growth inhibition (GI),SK-MEL-5,Active
same,growth inhibition (GI),MDA-MB-231,Active
same,growth inhibition (GI),UACC-62,Active
same,growth inhibition (GI),BT-549,Active
same,growth inhibition (GI),Malme-3M,Active
same,growth inhibition (GI),MDA-MB-435,Active
COc1ccc2nc(Cl)c(Cn3nnc(Cc4ccccc4)n3)cc2c1,inhibition of growth at 10 µM,"IGROV-1; IGROV-1, 48 h, read-out: GI",56.8%
same,inhibition of growth at 10 µM,"SK-OV-3; SK-OV-3, 48 h, read-out: GI",50.6%
same,inhibition of growth at 10 µM,SN12C; read-out: GI,42.7%
same,inhibition of growth at 10 µM,"A549; A549, 48 h, read-out: GI",68.5%
same,inhibition of growth at 10 µM,"NCI-H226; NCI-H226, 48 h, read-out: GI",61%
same,inhibition of growth at 10 µM,"M14; M14, 48 h, read-out: GI",69.7%
same,inhibition of growth at 10 µM,"NCI-H23; NCI-H23, 48 h, read-out: GI",67.5%
same,inhibition of growth at 10 µM,"NCI-H460; NCI-H460, 48 h, read-out: GI",60%
same,inhibition of growth at 10 µM,"SF-539; SF-539, 48 h, read-out: GI",32.5%
same,inhibition of growth at 10 µM,LOX IMVI; read-out: GI,57.1%
same,inhibition of growth at 10 µM,"TK-10; TK-10, 48 h, read-out: GI",65.1%
same,zone of inhibition at 100 µg/mL,Candida albicans [1],16 mm
same,inhibition of growth at 10 µM,EKVX; read-out: GI,75.5%
same,inhibition of growth at 10 µM,"RXF 393; RXF 393, 48 h, read-out: GI",39.8%
same,inhibition of growth at 10 µM,"OVCAR-8; OVCAR-8, 48 h, read-out: GI",59.5%
same,inhibition of growth at 10 µM,"SF-268; SF-268, 48 h, read-out: GI",48.5%
same,inhibition of growth at 10 µM,"KM12; KM12, 48 h, read-out: GI",63.5%
same,inhibition of growth at 10 µM,"MOLT-4; MOLT-4, 48 h, read-out: GI",89.7%
same,inhibition of growth at 10 µM,"HCT-15; HCT-15, 48 h, read-out: GI",63.5%
same,inhibition of growth at 10 µM,T47D; read-out: GI,97.6%
same,inhibition of growth at 10 µM,"COLO 205; COLO 205, 48 h, read-out: GI",75.1%
same,inhibition of growth at 10 µM,"UACC-257; UACC-257, 48 h, read-out: GI",73.5%
same,inhibition of growth at 10 µM,"HL-60(TB); HL-60, 48 h, read-out: GI",43.4%
same,inhibition of growth at 10 µM,"NCI-H522; NCI-H522, 48 h, read-out: GI",62%
same,inhibition of growth at 10 µM,"SK-MEL-2; SK-MEL-2, 48 h, read-out: GI",50.4%
same,inhibition of growth at 10 µM,"SNB-19; SNB-19, 48 h, read-out: GI",42%
same,MIC,Aspergillus fumigatus,25 µg/mL
same,inhibition of growth at 10 µM,"CAKI-1; CAKI-1, 48 h, read-out: GI",56.1%
same,inhibition of growth at 10 µM,"U-251; U-251, 48 h, read-out: GI",46.8%
same,inhibition of growth at 10 µM,"HCT-116; HCT-116, 48 h, read-out: GI",70.8%
same,inhibition of growth at 10 µM,ACHN; read-out: GI,58.5%
same,inhibition of growth at 10 µM,"HCC 2998; HCC 2998, 48 h, read-out: GI",41%
same,inhibition of growth at 10 µM,"SNB-75; SNB-75, 48 h, read-out: GI",42.9%
same,inhibition of growth at 10 µM,SR; read-out: GI,77.1%
same,inhibition of growth at 10 µM,"SW-620; SW-620, 48 h, read-out: GI",33.6%
same,MIC,Candida albicans [2],10 µg/mL
same,inhibition of growth at 10 µM,"SF-295; SF-295, 48 h, read-out: GI",62.6%
same,inhibition of growth at 10 µM,"UO-31; UO-31, 48 h, read-out: GI",85.3%
same,inhibition of growth at 10 µM,"SK-MEL-5; SK-MEL-5, 48 h, read-out: GI",147%
same,inhibition of growth at 10 µM,"MDA-MB-231; MDA-MB-231, 48 h, read-out: GI",49.3%
same,inhibition of growth at 10 µM,"UACC-62; UACC-62, 48 h, read-out: GI",64.9%
same,inhibition of growth at 10 µM,"BT-549; BT-549, 48 h, read-out: GI",79.7%
same,inhibition of growth at 10 µM,Malme-3M; read-out: GI,65.6%
same,inhibition of growth at 10 µM,"MDA-MB-435; MDA-MB-435, 48 h, read-out: GI",70.7%
